Converted amounts (≈) assume the structure as drawn.
Test system: S. aureus 29213
Experiment: MIC by broth microdilution (NCCLS), S. aureus 29213
Format: cell-based
Conditions: Staphylococcus aureus, strain S. aureus 29213, cation-adjusted Mueller-Hinton Broth, pH 7.2-7.3
Description: These assays have been performed following the description given in “Methods for dilution Antimicrobial Susceptibility Tests for Bacteria that Grow Aerobically, 4th ed.; Approved standard: NCCLS Document M7-A4; National Committee for Clinical Laboratory Standards: Villanova, Pa., USA, 1997”. Minimal inhibitory concentrations (MICs; mg/l) were determined in cation-adjusted Mueller-Hinton Broth (BBL) by a microdilution method following NCCLS guidelines (National Committee for Clinical Laboratory Standards. Methods for Dilution Antimicrobial Susceptibility). The pH of the test medium was 7.2-7.3.

| SMILES | MIC [µg/mL] |
| --- | --- |
| CCC(=O)N(CCCc1ccnc2ccc(OC)nc12)C[C@@H]1CN(c2ccc3c(c2)NC(=O)CS3)C(=O)O1 [Example 38, N-[3-(6-methoxy-[1,5]naphthyridin-4-yl)-propyl]-N-[(R)-2-oxo-3-(3-oxo-3,4-dihydro-2H-benzo[1,4]thiazin-6-yl)-oxazolidin-5-ylmethyl]-propionamide] | ≤ 0.063 |
| COc1ccc2nccc(CCCCC[C@@H]3CN(c4ccc5c(c4)NC(=O)CS5)C(=O)O3)c2n1 [Example 125, 6-{(R)-5-[5-(6-methoxy-[1,5]naphthyridin-4-yl)-pentyl]-2-oxo-oxazolidin-3-yl}-4H-benzo[1,4]thiazin-3-one] | ≤ 0.063 |
| COc1ccc2c(OC)ccc(CNCCCC3CN(c4ccc5c(c4)NC(=O)CS5)C(=O)O3)c2c1 (racemic) [Example 169, rac-6-(5-{3-[(4,7-dimethoxy-naphthalen-1-ylmethyl)-amino]-propyl}-2-oxo-oxazolidin-3-yl)-4H-benzo[1,4]thiazin-3-one] | ≤ 0.063 |
| COc1cnc2cccc(CN(C)C(=O)CCC3CN(c4ccc5c(c4)OCCO5)C(=O)O3)c2n1 (racemic) [Example 110, rac-3-[3-(2,3-dihydro-benzo[1,4]dioxin-6-yl)-2-oxo-oxazolidin-5-yl]-N-(3-methoxy-quinoxalin-5-ylmethyl)-N-methyl-propionamide] | ≤ 0.063 |
| COc1ccc2ncc(F)c(CNCC[C@@H](N)[C@@H]3CN(c4ccc5c(c4)OCCO5)C(=O)O3)c2n1 (relative stereo) [Example 107, (S*)-5-{(R*)-1-amino-3-[(3-fluoro-6-methoxy-[1,5]naphthyridin-4-ylmethyl)-amino]-propyl}-3-(2,3-dihydro-benzo[1,4]dioxin-6-yl)-oxazolidin-2-one] | ≤ 0.063 |
| COC(=O)c1ccc(CNCCCC2CN(c3ccc4c(c3)NC(=O)CS4)C(=O)O2)c2nc(OC)ccc12 (racemic) [Example 156, rac-2-methoxy-8-({3-[2-oxo-3-(3-oxo-3,4-dihydro-2H-benzo[1,4]thiazin-6-yl)-oxazolidin-5-yl]-propylamino}-methyl)-quinoline-5-carboxylic acid methyl ester] | ≤ 0.063 |
| COc1ccc2nccc(CCN(C)C[C@@H](O)[C@H]3CN(c4ccc5c(c4)OCCO5)C(=O)O3)c2n1 (relative stereo) [Example 99, (R*)-3-(2,3-dihydro-benzo[1,4]dioxin-6-yl)-5-((R*)-1-hydroxy-2-{[2-(6-methoxy-[1,5]naphthyridin-4-yl)-ethyl]-methyl-amino}-ethyl)-oxazolidin-2-one] | ≤ 0.063 |
| COc1ccc2nccc(NCCNC[C@@H]3CN(c4ccc5c(c4)NC(=O)CS5)C(=O)O3)c2n1 [Example 201, 6-((R)-5-{[2-(6-methoxy-[1,5]naphthyridin-4-ylamino)-ethylamino]-methyl}-2-oxo-oxazolidin-3-yl)-4H-benzo[1,4]thiazin-3-one] | ≤ 0.063 |
| COc1ccc2ncc(F)c(CCCN(C[C@H](O)CO)C[C@@H]3CN(c4ccc5c(c4)OCCO5)C(=O)O3)c2n1 [Example 135, (R)-3-(2,3-dihydro-benzo[1,4]dioxin-6-yl)-5-({((S)-2,3-dihydroxy-propyl)-[3-(3-fluoro-6-methoxy-[1,5]naphthyridin-4-yl)-propyl]-amino}-methyl)-oxazolidin-2-one] | ≤ 0.063 |
| COc1ccc2nccc(CC[C@@H](N)CC[C@@H]3CN(c4ccc5c(c4)OCCO5)C(=O)O3)c2n1 (racemic) [Example 116, (RS)-5-[(RS)-3-amino-5-(6-methoxy-[1,5]naphthyridin-4-yl)-pentyl]-3-(2,3-dihydro-benzo[1,4]dioxin-6-yl)-oxazolidin-2-one] | ≤ 0.063 |
| COc1cnc2cccc(C(O)CN(C)C[C@@H](O)[C@H]3CN(c4ccc5c(c4)OCCO5)C(=O)O3)c2n1 (relative stereo) [Example 100, (R*)-3-(2,3-dihydro-benzo[1,4]dioxin-6-yl)-(R*)-5-(1-hydroxy-2-{[(RS)-2-hydroxy-2-(3-methoxy-quinoxalin-5-yl)-ethyl]-methyl-amino}-ethyl)-oxazolidin-2-one] | ≤ 0.063 |
| COc1ccc2nccc(/C=C/C(=O)N(C)C[C@@H]3CN(c4ccc(Br)c(F)c4)C(=O)O3)c2n1 [Example 22, (E)-N-[(R)-3-(4-bromo-3-fluoro-phenyl)-2-oxo-oxazolidin-5-ylmethyl]-3-(6-methoxy-[1,5]naphthyridin-4-yl)-N-methyl-acrylamide] | ≤ 0.063 |
| COc1ccc2nccc(CC[C@@H](O)CC[C@@H]3CN(c4ccc5c(c4)NC(=O)CS5)C(=O)O3)c2n1 (racemic) [Example 122, 6-{(RS)-5-[(RS)-3-hydroxy-5-(6-methoxy-[1,5]naphthyridin-4-yl)-pentyl]-2-oxo-oxazolidin-3-yl}-4H-benzo[1,4]thiazin-3-one] | ≤ 0.063 |
| COc1ccc2nccc(C(=O)CCCCC3CN(c4ccc5c(c4)OCCO5)C(=O)O3)c2n1 (racemic) [Example 63, rac-3-(2,3-dihydro-benzo[1,4]dioxin-6-yl)-5-[5-(6-methoxy-[1,5]naphthyridin-4-yl)-5-oxo-pentyl]-oxazolidin-2-one] | ≤ 0.063 |
| COc1cnc2cccc([C@@H](O)CNCC[C@@H]3CN(c4ccc5c(c4)OCCO5)C(=O)O3)c2n1 (relative stereo) [Example 92, (R*)-3-(2,3-dihydro-benzo[1,4]dioxin-6-yl)-5-{2-[(R*)-2-hydroxy-2-(3-methoxy-quinoxalin-5-yl)-ethylamino]-ethyl}-oxazolidin-2-one] | 0.125 (≈ 0.268 µM) |
| COc1ccc2nccc(CCCC[C@@H](O)[C@H]3CN(c4ccc5c(c4)OCCO5)C(=O)O3)c2n1 (relative stereo) [Example 111, (R*)-3-(2,3-dihydro-benzo[1,4]dioxin-6-yl)-5-[(R*)-1-hydroxy-5-(6-methoxy-[1,5]naphthyridin-4-yl)-pentyl]-oxazolidin-2-one] | ≤ 0.063 |
| COc1ccc2nccc(CCCCNC[C@@H]3CN(c4ccc5c(c4)NC(=O)CS5)C(=O)O3)c2n1 [Example 113, 6-((R)-5-{[4-(6-methoxy-[1,5]naphthyridin-4-yl)-butylamino]-methyl}-2-oxo-oxazolidin-3-yl)-4H-benzo[1,4]thiazin-3-one] | ≤ 0.063 |
| CCc1ccc(N2C[C@@H](CN(C)C(=O)/C=C/c3ccnc4ccc(OC)nc34)OC2=O)cc1 [Example 14, (E)-N-[(R)-3-(4-ethyl-phenyl)-2-oxo-oxazolidin-5-ylmethyl]-3-(6-methoxy-[1,5]naphthyridin-4-yl)-N-methyl-acrylamide] | ≤ 0.063 |
| COc1ccc2ncc(F)c(CN(CCO)CCC[C@@H]3CN(c4ccc5c(c4)NC(=O)CO5)C(=O)O3)c2n1 [Example 179, 6-((R)-5-{3-[(3-fluoro-6-methoxy-[1,5]naphthyridin-4-ylmethyl)-(2-hydroxy-ethyl)-amino]-propyl}-2-oxo-oxazolidin-3-yl)-4H-benzo[1,4]oxazin-3-one] | ≤ 0.063 |
| N#Cc1ccc2cccc(/C=C/C(=O)NC[C@@H]3CN(c4ccc5c(c4)OCCO5)C(=O)O3)c2n1 [Example 16, (E)-3-(2-cyano-quinolin-8-yl)-N-[(R)-3-(2,3-dihydro-benzo[1,4]dioxin-6-yl)-2-oxo-oxazolidin-5-ylmethyl]-acrylamide] | 0.125 (≈ 0.274 µM) |
| COc1ccc2nccc(CCNC[C@@H](O)[C@H]3CN(c4ccc5c(c4)OCCO5)C(=O)O3)c2n1 (relative stereo) [Example 97, (R*)-3-(2,3-dihydro-benzo[1,4]dioxin-6-yl)-5-{(R*)-1-hydroxy-2-[2-(6-methoxy-[1,5]naphthyridin-4-yl)-ethylamino]-ethyl}-oxazolidin-2-one] | ≤ 0.063 |
| COc1cc2ccccc2c(CNCCCC2CN(c3ccc4c(c3)NC(=O)CS4)C(=O)O2)c1OC (racemic) [Example 168, rac-6-(5-{3-[(2,3-dimethoxy-naphthalen-1-ylmethyl)-amino]-propyl}-2-oxo-oxazolidin-3-yl)-4H-benzo[1,4]thiazin-3-one] | ≤ 0.063 |
| COc1ccc2nccc(CCC[C@@H](O)C[C@@H]3CN(c4ccc5c(c4)OCCO5)C(=O)O3)c2n1 (racemic) [Example 123, (RS)-3-(2,3-dihydro-benzo[1,4]dioxin-6-yl)-5-[(RS)-2-hydroxy-5-(6-methoxy-[1,5]naphthyridin-4-yl)-pentyl]oxazolidin-2-one] | ≤ 0.063 |
| COC(=O)CCN(CCCC1CN(c2ccc3c(c2)NC(=O)CS3)C(=O)O1)Cc1ccnc2ccc(OC)nc12 (racemic) [Example 171, rac-3-((6-methoxy-[1,5]naphthyridin-4-ylmethyl)-{3-[2-oxo-3-(3-oxo-3,4-dihydro-2H-benzo[1,4]thiazin-6-yl)-oxazolidin-5-yl]-propyl}-amino)-propionic acid methyl ester] | ≤ 0.063 |
| COc1ccc2ncc(F)c(CN(CCCC3CN(c4ccc5c(c4)NC(=O)CS5)C(=O)O3)C[C@@H](O)CCl)c2n1 (mixture of isomers) [Example 152, 6-((RS)-5-{3-[((R)-3-chloro-2-hydroxy-propyl)-(3-fluoro-6-methoxy-[1,5]naphthyridin-4-ylmethyl)-amino]-propyl}-2-oxo-oxazolidin-3-yl)-4H-benzo[1,4]thiazin-3-one] | ≤ 0.063 |
| COc1cnc2cccc(CCC(=O)NC[C@@H]3CN(c4ccc5c(c4)NC(=O)CS5)C(=O)O3)c2c1 [Example 28, 3-(3-methoxy-quinolin-5-yl)-N-[(R)-2-oxo-3-(3-oxo-3,4-dihydro-2H-benzo[1,4]thiazin-6-yl)-oxazolidin-5-ylmethyl]-propionamide] | ≤ 0.063 |
| O=C1CSc2ccc(N3CC(CCCNCc4cccc5ccccc45)OC3=O)cc2N1 (racemic) [Example 155, rac-6-(5-{3-[(naphthalen-1-ylmethyl)-amino]-propyl}-2-oxo-oxazolidin-3-yl)-4H-benzo[1,4]thiazin-3-one] | ≤ 0.063 |
| COc1ccc2nccc(CCNCCC3CN(c4ccc5c(c4)OCCO5)C(=O)O3)c2n1 (racemic) [Example 72, (rac)-3-(2,3-dihydro-benzo[1,4]dioxin-6-yl)-5-{2-[2-(6-methoxy-[1,5]naphthyridin-4-yl)-ethylamino]-ethyl}-oxazolidin-2-one] | ≤ 0.063 |
